# Test results from ChEMBL document CHEMBL1201862, “PubChem BioAssay data set” (2004).
#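 Values below derive from 48-hour exposures of cells grown in 96-well plates, with endpoints linearly interpolated between the two concentrations bracketing the appropriate inhibition level. GI50 = concentration required for 50% inhibition of growth.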 Active and inactive are the calls of the source. Cut-off read from the data, not from the text of the source: active = GI50 up to about 1.1 µM and inactive = higher.
# Legend:
# Assay in all cases: growth of human tumour cells (NCI), 48 h
# SF-268 = test system: SF-268
# HOP-92 = test system: HOP-92
# DLD-1 = test system: DLD-1
# UACC-62 = test system: UACC-62
# SF-295 = test system: SF-295
# HCT-15 = test system: HCT-15
# OVCAR-5 = test system: OVCAR-5
# XF498 = test system: XF498
# K562 = test system: K562
# ACHN = test system: ACHN
# HOP-62 = test system: HOP-62
# SN12C = test system: SN12C
# SF-539 = test system: SF-539
# MOLT-4 = test system: MOLT-4
# Malme-3M = test system: Malme-3M
# TK-10 = test system: TK-10
# 786-0 = test system: 786-0
# RPMI-8226 = test system: RPMI-8226
# DMS-114 = test system: DMS-114
# RXF 631 = test system: RXF 631
# SNB-75 = test system: SNB-75
# CAKI-1 = test system: CAKI-1
# IGROV-1 = test system: IGROV-1
# HT-29 = test system: HT-29
# SK-MEL-2 = test system: SK-MEL-2
# M19-MEL = test system: M19-MEL
# OVCAR-8 = test system: OVCAR-8
# NCI-H460 = test system: NCI-H460
# SK-OV-3 = test system: SK-OV-3
# SNB-78 = test system: SNB-78
# DMS-273 = test system: DMS-273
# U-251 = test system: U-251
# NCI-H226 = test system: NCI-H226
# HCC 2998 = test system: HCC 2998
# A549 = test system: A549
# KM12 = test system: KM12
# HL-60 = test system: HL-60
# CCRF-CEM = test system: CCRF-CEM
# NCI-H23 = test system: NCI-H23
# OVCAR-3 = test system: OVCAR-3
# M14 = test system: M14
# LXFL 529 = test system: LXFL 529
# A498 = test system: A498
# UO-31 = test system: UO-31
# COLO 205 = test system: COLO 205
# EKVX = test system: EKVX
# OVCAR-4 = test system: OVCAR-4
# SK-MEL-28 = test system: SK-MEL-28
# SW-620 = test system: SW-620
# HOP-18 = test system: HOP-18
# LOX IMVI = test system: LOX IMVI
# KM-20L2 = test system: KM-20L2
# T47D = test system: T47D
# PC-3 = test system: PC-3
# SK-MEL-5 = test system: SK-MEL-5
# NCI/ADR-RES = test system: NCI/ADR-RES
# MDA-N = test system: MDA-N
# MDA-MB-231 = test system: MDA-MB-231
# SNB-19 = test system: SNB-19
# DU-145 = test system: DU-145
# NCI-H522 = test system: NCI-H522
# UACC-257 = test system: UACC-257
# RXF 393 = test system: RXF 393
# Hs-578T = test system: Hs-578T
# HCT-116 = test system: HCT-116
# SR = test system: SR
# BT-549 = test system: BT-549
# MCF7 = test system: MCF7
# MDA-MB-435 = test system: MDA-MB-435
compound,measurement,setting,value
O=C1c2ccccc2C(=O)c2c(O)c(NCCCNCCO)cc(O)c21,GI50,SF-268,7.91 µM (inactive)
same,GI50,HOP-92,12.4 µM (inactive)
same,GI50,DLD-1,6.49 µM (inactive)
same,GI50,UACC-62,18.7 µM (inactive)
same,GI50,SF-295,10.7 µM (inactive)
same,GI50,HCT-15,5.83 µM
same,GI50,OVCAR-5,11.3 µM (inactive)
same,GI50,XF498,16 µM (inactive)
same,GI50,K562,1.66 µM (inactive)
same,GI50,ACHN,3.82 µM (inactive)
same,GI50,HOP-62,2.44 µM (inactive)
same,GI50,SN12C,10.5 µM (inactive)
same,GI50,SF-539,9.38 µM (inactive)
same,GI50,MOLT-4,2.74 µM (inactive)
same,GI50,Malme-3M,17.1 µM (inactive)
same,GI50,TK-10,8.83 µM (inactive)
same,GI50,786-0,10.5 µM (inactive)
same,GI50,RPMI-8226,7.59 µM (inactive)
same,GI50,DMS-114,11 µM (inactive)
same,GI50,RXF 631,6.34 µM (inactive)
same,GI50,SNB-75,12.9 µM (inactive)
same,GI50,CAKI-1,10.2 µM (inactive)
same,GI50,IGROV-1,12.4 µM (inactive)
same,GI50,HT-29,4.16 µM (inactive)
same,GI50,SK-MEL-2,18 µM (inactive)
same,GI50,M19-MEL,13.7 µM (inactive)
same,GI50,OVCAR-8,5.79 µM (inactive)
same,GI50,NCI-H460,3.33 µM (inactive)
same,GI50,SK-OV-3,12.4 µM (inactive)
same,GI50,SNB-78,11.2 µM (inactive)
same,GI50,DMS-273,4.97 µM (inactive)
same,GI50,U-251,6.15 µM (inactive)
same,GI50,NCI-H226,5.61 µM (inactive)
same,GI50,HCC 2998,3.06 µM (inactive)
same,GI50,A549,10.3 µM (inactive)
same,GI50,KM12,0.729 µM (active)
same,GI50,HL-60,4.18 µM (inactive)
same,GI50,CCRF-CEM,2.47 µM (inactive)
same,GI50,NCI-H23,9.18 µM (inactive)
same,GI50,OVCAR-3,12.1 µM (inactive)
same,GI50,M14,16.7 µM (inactive)
same,GI50,LXFL 529,11.1 µM (inactive)
same,GI50,A498,14.8 µM (inactive)
same,GI50,UO-31,5.87 µM (inactive)
same,GI50,COLO 205,5.92 µM (inactive)
same,GI50,EKVX,13.7 µM (inactive)
same,GI50,OVCAR-4,10.2 µM (inactive)
same,GI50,SK-MEL-28,16.2 µM (inactive)
same,GI50,SW-620,4.33 µM (inactive)
same,GI50,HOP-18,2.41 µM (inactive)
O=C1C(CN2CCOCC2)CCCC1CN1CCOCC1 (stereo not drawn),GI50,SF-268,9.77 µM (inactive)
same,GI50,HOP-92,0.92 µM (active)
same,GI50,DLD-1,0.67 µM (active)
same,GI50,UACC-62,7.85 µM (inactive)
same,GI50,SF-295,33.4 µM (inactive)
same,GI50,HCT-15,1.09 µM
same,GI50,LOX IMVI,3.28 µM (inactive)
same,GI50,OVCAR-5,18.6 µM (inactive)
same,GI50,K562,0.48 µM (active)
same,GI50,ACHN,1.88 µM (inactive)
same,GI50,HOP-62,> 100 µM (inactive)
same,GI50,KM-20L2,6.43 µM (inactive)
same,GI50,T47D,1.13 µM (inactive)
same,GI50,SN12C,4.01 µM (inactive)
same,GI50,SF-539,3.92 µM (inactive)
same,GI50,MOLT-4,0.861 µM (active)
same,GI50,PC-3,15.6 µM (inactive)
same,GI50,SK-MEL-5,11.1 µM (inactive)
same,GI50,Malme-3M,0.724 µM (active)
same,GI50,TK-10,3.94 µM (inactive)
same,GI50,NCI/ADR-RES,2.18 µM (inactive)
same,GI50,MDA-N,4.37 µM (inactive)
same,GI50,MDA-MB-231,5.97 µM (inactive)
same,GI50,786-0,1.16 µM (inactive)
same,GI50,RPMI-8226,0.296 µM (active)
same,GI50,SNB-19,30.8 µM (inactive)
same,GI50,DMS-114,5.61 µM (inactive)
same,GI50,RXF 631,10.5 µM (inactive)
same,GI50,SNB-75,14 µM (inactive)
same,GI50,CAKI-1,0.394 µM (active)
same,GI50,DU-145,17.3 µM (inactive)
same,GI50,IGROV-1,8.79 µM (inactive)
same,GI50,HT-29,1.76 µM (inactive)
same,GI50,NCI-H522,0.0597 µM (active)
same,GI50,UACC-257,2.09 µM (inactive)
same,GI50,SK-MEL-2,8.36 µM (inactive)
same,GI50,M19-MEL,7.11 µM (inactive)
same,GI50,OVCAR-8,3.41 µM (inactive)
same,GI50,NCI-H460,24.6 µM (inactive)
same,GI50,SK-OV-3,32.1 µM (inactive)
same,GI50,SNB-78,2.35 µM (inactive)
same,GI50,DMS-273,8.11 µM (inactive)
same,GI50,U-251,30.1 µM (inactive)
same,GI50,NCI-H226,20.6 µM (inactive)
same,GI50,RXF 393,1.75 µM (inactive)
same,GI50,Hs-578T,23 µM (inactive)
same,GI50,HCC 2998,5.27 µM (inactive)
same,GI50,HCT-116,1.29 µM (inactive)
same,GI50,A549,24.1 µM (inactive)
same,GI50,KM12,5.98 µM (inactive)
same,GI50,HL-60,0.787 µM (active)
same,GI50,CCRF-CEM,0.76 µM (active)
same,GI50,NCI-H23,6 µM (inactive)
same,GI50,OVCAR-3,3.1 µM (inactive)
same,GI50,M14,3.44 µM (inactive)
same,GI50,LXFL 529,1.53 µM (inactive)
same,GI50,A498,23 µM (inactive)
same,GI50,UO-31,9.73 µM (inactive)
same,GI50,SR,5.31 µM (inactive)
same,GI50,COLO 205,3.1 µM (inactive)
same,GI50,EKVX,4.23 µM (inactive)
same,GI50,OVCAR-4,2.18 µM (inactive)
same,GI50,BT-549,1.96 µM (inactive)
same,GI50,SK-MEL-28,1.95 µM (inactive)
same,GI50,SW-620,0.436 µM (active)
same,GI50,MCF7,0.303 µM (active)
same,GI50,HOP-18,1.81 µM (inactive)
same,GI50,MDA-MB-435,14.4 µM (inactive)
